Data as given in patent US11835503B2, “TMA-formation inhibitor treatment for elevated TMA-containing compound diseases” (The Cleveland Clinic Foundation, priority 2009, dated 2023).

Key:
intestinal flora = experiment: oral d9-(trimethyl)-PC challenge in subjects, time course of plasma d9-TMA by LC/MS/MS; assay type: in vivo, humans; settings: human subjects, 250 mg oral
Protocol: TMA is detected in plasma. While TMA is a gas at room and body temperature, if one acidifies the plasma, and the sample flash frozen and analyzed immediately upon thaw, one can measure the TMA cation by mass spectrometry.
Subjects were given 250 mg of d9-(trimethyl)-PC, and then time course of d9-TMA in plasma quantified. […] Plasma TMA was quantified by LC/MS/MS of samples immediately after blood draw, acidification of the plasma with 10 mM HCl to lower TMA vapor pressure, and snap freezing in liquid nitrogen and storage at −80 C until time of analysis.

intestinal microflora [1] = experiment: D3-carnitine gavage in mice, plasma D3-TMA and D3-TMANO by stable isotope dilution LC/MS/MS; assay type: in vivo; settings: gavage at t=0, plasma
From the text: In additional work, mice were gavaged with D3-carnitine and the time dependent appearance of D3-TMA and TMANO were quantified in plasma. Where indicated in FIG. 8, mice were pretreated for 3 weeks with a broad spectrum antibiotic cocktail to suppress intestinal microflora. […] Plasma levels of the deuterium (D3) labeled metabolites of D3-carnitine, D3-TMA and D3-TMANO, were quantified in plasma by stable isotope dilution LC/MS/MS analysis. D3-Carnitine was given by gavage feeding to mice at t=0. Results are shown in FIG. 8, with TMA production shown in FIG. 8B and TMANO production in FIG. 8C.

intestinal microflora [2] = experiment: D3-carnitine gavage in mice, plasma D3-crotonobetaine and D3-gamma-butyrobetaine by LC/MS/MS; assay type: in vivo
From the text: In further work, mice were gavaged with D3-carnitine and the time dependent appearance of D3-crotonobetaine and gamma butyrobetaine were quantified in plasma. Where indicated in FIG. 9, mice were pretreated for 3 weeks with a broad spectrum antibiotic cocktail to suppress intestinal microflora. […] D3-crotonobetaine and D3-gamma-butyrobetaine were quantified in plasma by LC/MS/MS analysis isolated at the indicated times following D3-carnitine gavage feeding. Results are shown in FIG. 9, with crotonbetaine production shown in FIG. 9A, and gamma-butyrobetain production shown in FIG. 9B.

**Q.** How did the “time at which plasma d9-TMA levels increased after the PC challenge” value (intestinal flora) turn out when d9-(trimethyl)-PC was run?
**A.** The value was 4 to 8 h.

**Q.** Which results are given for `[2H]C([2H])([2H])[N+](C)(C)CC(O)CC(=O)[O-]` (stereo not drawn) [D3-carnitine]?
**A.** metabolites of D3-carnitine appearing in plasma (D3-TMA, D3-TMANO) (intestinal microflora [1]): both TMA and TMANO are generated as a metabolite of carnitine ingestion; metabolites of D3-carnitine appearing in plasma (D3-crotonobetaine, D3-gamma-butyrobetaine) (intestinal microflora [2]): both compounds are generated as a metabolite of carnitine ingestion
